Results on 1 compound are retold here after ChEMBL document CHEMBL5143721, “Novel Hydroxychalcone-Based Dual Inhibitors of Aldose Reductase and α-Glucosidase as Potential Therapeutic Agents against Diabetes Mellitus and Its Complications” (J Med Chem, 2022).

As usually defined, the logD is lipophilicity at a set pH, counting ionised and neutral species. By IC50 is commonly meant the concentration at which inhibition is half-maximal.

A short description of series [1]: Octanol/buffer distribution coefficient, log D of compound at pH 7.4 incubated for 24 hrs by shake flask based HPLC method. It counts as physicochemical.
In series [2] the test system is Brain. Description: Antioxidant activity in rat brain homogenate assessed as inhibition of lipid peroxidation by measuring MDA concentration at 10 uM relative to control. It counts as functional, tissue-based. Details: scale not given: the % may be the effect or the level left.
Series [3] concerns Rattus norvegicus. Description: Antidiabetic activity against STZ-induced diabetic Sprague-Dawley rat model assessed as reduction in fasting blood glucose level at 160 mg/kg, IG administered once daily for 28 days. Details: scale not given: the % may be the effect or the level left. It is filed as functional. The conditions noted are these: time 28 day.
In series [4] the test system is HEK-293T. The series is described as follows: Cytotoxicity against HEK293T cells at 15 to 200 micromol/L by MTT assay. The conditions noted are these: human, dose 15-200 µmol/L. It counts as toxicity, cell-based. A general note: Tetrazolium assays rely on reduction of a dye to a coloured formazan, in cell work by metabolically active cells.
Series [5] is described as follows: Antioxidant activity assessed as DPPH radical scavenging activity at 100 uM incubated for 30 mins by DPPH assay relative to control. It counts as functional. Background: DPPH is a stable violet radical that fades when it is reduced.
The test system of series [6] is Rattus norvegicus. The series is described as follows: Antidiabetic activity against STZ-induced diabetic Sprague-Dawley rat model assessed as reduction in triglycerides level in serum at 160 mg/kg, IG administered once daily for 28 days relative to control. It is filed as functional. Details: scale not given: the % may be the effect or the level left. The conditions noted are these: time 28 day.

Series [7] in a line: Inhibition of Wistar rat lens ALR2 using D,L-glyceraldehyde as substrate preincubated for 10 mins in presence of NADPH followed by substrate addition and measured after 4 mins. It is filed as tissue-based.
The test system of series [8] is Rattus norvegicus. The series is described as follows: Antidiabetic activity against STZ-induced diabetic Sprague-Dawley rat model assessed as increase in liver glycogen levels at 160 mg/kg, IG administered once daily for 28 days. It counts as functional. The conditions noted are these: time 28 day.
Series [9] can be described thus: Inhibition of Wistar rat kidney ALR1 using sodium D-glucuronate as substrate preincubated for 10 mins in presence of NADPH followed by substrate addition and measured after 4 mins. It is filed as tissue-based.
Series [10] has as its system Brain. The series is described as follows: Antioxidant activity in rat brain homogenate assessed as inhibition of lipid peroxidation by measuring MDA concentration at 100 uM by TBARS assay relative to control. It is filed as functional, tissue-based. Further details: scale not given: the % may be the effect or the level left.
A short description of series [11]: Antioxidant activity assessed as DPPH radical scavenging activity at 10 uM incubated for 30 mins by DPPH assay relative to control. It is filed as functional.
Series [12] has as its system Rattus norvegicus. The series is described as follows: Antidiabetic activity against STZ-induced diabetic Sprague-Dawley rat model assessed as reduction in total cholesterol level in serum at 160 mg/kg, IG administered once daily for 28 days relative to control. Details: scale not given: the % may be the effect or the level left. The conditions noted are these: time 28 day. It is filed as functional.

The nature of series [13]: In vivo inhibition of ALR2 in STZ-induced diabetic Sprague-Dawley rat model assessed as reduction in ALR2 activity in lens at 160 mg/kg, IG administered once daily for 28 days relative to control. It counts as functional. Details: scale not given: the % may be the effect or the level left. The conditions noted are these: time 28 day.
The subject of series [14] is Brain. Description: Antioxidant activity in rat brain homogenate assessed as inhibition of lipid peroxidation by measuring MDA concentration at 1 uM by TBARS assay relative to control. It is filed as functional, tissue-based. Further details: scale not given: the % may be the effect or the level left.
Series [15] is described as follows: Antioxidant activity assessed as DPPH radical scavenging activity at 1 uM incubated for 30 mins by DPPH assay relative to control. It counts as functional.
The nature of series [16]: Antioxidant activity assessed as DPPH radical scavenging activity at 50 uM incubated for 30 mins by DPPH assay relative to control. It counts as functional.
The test system of series [17] is Rattus norvegicus. Description: Antidiabetic activity against 12 hrs fasted STZ-induced diabetic Sprague-Dawley rat model assessed as reduction in AUC of blood glucose level at 160 mg/kg, IG administered once daily for 28 days followed by maltose addition after 30 mins post cpd treatment and measured after 30 mins post maltose treatment. The conditions noted are these: time 673 hrs. It is filed as functional. Details: scale not given: the % may be the effect or the level left.

The nature of series [18]: Antioxidant activity assessed as DPPH radical scavenging activity at 5 uM incubated for 30 mins by DPPH assay relative to control. It is filed as functional.
Series [19] concerns Brain. The series is described as follows: Antioxidant activity in rat brain homogenate assessed as inhibition of lipid peroxidation by measuring MDA concentration at 50 uM by TBARS assay relative to control. It is filed as functional, tissue-based. Further details: scale not given: the % may be the effect or the level left.
The test system of series [20] is Rattus norvegicus. Description: Antidiabetic activity against 12 hrs fasted STZ-induced diabetic Sprague-Dawley rat model assessed as reduction in blood glucose level at 160 mg/kg, IG administered once daily for 28 days followed by glucose addition after 30 mins post cpd treatment and measured after 30 mins post glucose treatment by oral glucose tolerance test. The conditions noted are these: time 673.0 hrs. It is filed as functional, organism-based.

Series [21] relates to Brain. The series is described as follows: Antioxidant activity in rat brain homogenate assessed as inhibition of lipid peroxidation by measuring MDA concentration at 5 uM by TBARS assay relative to control. It counts as functional, tissue-based. Further details: scale not given: the % may be the effect or the level left.
Series [22] has as its system Rattus norvegicus. The series is described as follows: Antidiabetic activity against STZ-induced diabetic Sprague-Dawley rat model assessed as reduction in triglycerides level in liver at 160 mg/kg, IG administered once daily for 28 days relative to control. It is filed as functional. Further details: scale not given: the % may be the effect or the level left. The conditions noted are these: time 28 day.

For series [23], the species on record is Rattus norvegicus. Description: Selectivity index, ratio of IC50 for Wistar rat kidney ALR1 to IC50 for Wistar rat lens ALR2.

Each structure is given as a SMILES string. Activity calls are given as the source filed them. The calls are words filed in the database; no cut-off is given here.

As to `CC(C)=CCn1c(=O)oc2c(C(=O)/C=C/c3ccc(O)c(O)c3)cccc21`, the logD at 24 h in [1] was 0.98. For the same compound, the Activity in [2] is 65.8%; in [3], 20.7%; in [4] it was “Non-Toxic”; in series [5] it was 98%; in [6] it was 64.3%; in series [8] it was 43.83%. The Activity was 97% in series [10]; 93% in series [11]; 50.7% in series [12]; 47.2% in [13]; 35% in series [14]; 41.2% in [15]. Further, the Activity in series [16] came out at 96%; in series [17] it was 21.16%; in series [18], 90.9%; in series [19], 90.7%; in series [21] it was 52%; in series [22], 32.8%. Besides, the IC50 in [7] came out at 0.149 µM; in series [9] it was 7.48 µM. Also, the result in series [20] was Active. Also, the Ratio IC50 in series [23] turned out to be 39.7.
